Measured values: patent US8501680B2, “Antagonists against interaction of PF4 and RANTES” (RWTH Aachen, priority 2005, dated 2013)
Blank lines part the entries; values can stand above or below the sequence they belong to.

Columns and labels:
[1] = test system: Mono Mac 6 cells on IL-1 activated HUVEC; arrest potentiated by RANTES and PF4; assay: Inhibition of monocyte arrest on activated endothelium under flow; type: cell-based, human; settings: 6 μM peptide, 60 nM RANTES and PF4, 1.5 dyn/cm2, adherent cells after 4 minutes
Procedure: Endothelial cells from the human umbilical cord (HUVEC, human umbilical vein endothelial cells, PromoCell, Heidelberg) were cultured in endothelial cell growth medium (PromoCell, Heidelberg) and used after two to four passages.
Monocytic Mono Mac 6 cells (MM6, DSMZ) were cultured in RPMI 1640 medium (PAA Laboratories, Pasching, Austria) with the addition of 10% fetal calf serum, 2 mM L-glutamine (Biowhittaker), 1 mM sodium pyruvate, 50 μg/mL gentamycin and 9 μg/mL insulin (MM6 medium). The cells were sown with a density of 2×10^5/mL in 2 mL MM6 medium in 24-well plates and cultured at 37° C. in a humid atmosphere with 5% CO2 for 3 to 4 days before being used for experiments.
The interaction of monocytic Mono Mac 6 cells on activated endothelial cells was investigated.
Petri dishes with confluent HUVEC cells layers activated with IL-113 (Interleukin 1(3, Peprotech, 10 ng/mL, 12 hours) were placed in a flow chamber. Mono Mac 6 cells (0.5×10^6 cells/mL) were resuspended in balanced Hank solution (HBSS with 10 mM HEPES (Gibco BRL), pH 7.3, 0.5% bovine serum albumin (Serva)) and kept on ice. Five minutes before the experiment, Ca^2+ and Mg^2+ were added to the monocytic MM6 cells to yield a final concentration of 1 mM and 60 nM of the chemokines RANTES (Peprotech, Rocky Hill, N.J., USA) and PF4 (ChromaTec, Greifswald), respectively, and 6 μM of the polypeptides of the sequence SEQ ID NO: 2 according to formula (2), the sequence SEQ ID NO: 3 according to formula (3) or a control peptide of the sequence SEQ ID NO: 14 according to formula (14) and then heated up to 37° C. Cells pretreated in this way were then perfused over endothelial cells at 1.5 dyn/cm^2 on a microscope of model IX 50 from Olympus. The number of monocytes that were adherent due to the interaction with the endothelial cells was determined after 4 minutes in various fields by image analysis of photographs by a video camera (3CCD, JVC) and recorder. The data were analyzed as the mean (n=5)±standard deviation (p<0.02) in comparison with a control.

[2] = biological target: T1, interaction of RANTES and PF4 (Homo sapiens, UniProt P02776+P13501); assay: Plasmon resonance (Biacore) study of inhibition of RANTES binding to immobilized biotinylated PF4
T1 construct: made in house; host or cells: chemical synthesis (t-Boc solid phase peptide synthesis and native chemical ligation); no expression host
T1 sequence (P13501 24-91): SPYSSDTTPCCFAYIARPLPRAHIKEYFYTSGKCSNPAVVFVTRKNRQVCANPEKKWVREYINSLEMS
T1 sequence (P02776 32-101): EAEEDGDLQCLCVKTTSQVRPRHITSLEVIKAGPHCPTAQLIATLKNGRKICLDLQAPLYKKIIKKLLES
Procedure: The plasmon resonance studies were performed using HBS-EP buffer (10 mM HEPES, 150 mM NaCl, 0.005% Tween 20, pH 7.4).
Two flow cells of a Cl chip (Biacore AB, Uppsala, Sweden) were activated by injection of 50 μL ethyl(dimethylaminopropyl)carbodiimide/N-hydroxysuccinimide (0.2M/0.05M, Pierce) and then 20 μL streptavidine (0.2 mg/mL, Sigma-Aldrich) was perfused over the activated surface. The surface was next inactivated by four successive injections of 20 μL […] (1M, pH 8, Sigma-Aldrich).
Biotinylated human PF4 (bPF4) at the N-terminus was chemically synthesized by means of t-Boc-based solid phase peptide synthesis and native chemical ligation of PF4 (Dawson, P. E., Kent, S. B. (2000), Annu. Rev. Biochem. 69:923-960, Hackeng, T. M., Griffin, J. H., Dawson, P. E. (1999), Proc. Natl. Acad. Sci. USA, vol. 96, pp. 10068-10073). The bPF4 was immobilized on the dextran surface of a Cl sensor chip by injecting 200 μg/mL bPF4 into HBS-EP through one of the flow chambers and recorded 240 resonance units (RU). The second flow chamber was not treated with bPF4 and served as the reference.
Binding of RANTES (0.5 μM, recombinant human RANTES, Peprotech, Rocky Hill, N.J., USA) or RANTES (0.5 μM) that had been preincubated with various concentrations (0 μM, 10 μM and 100 μM) of the polypeptide of the sequence SEQ ID NO: 3 according to formula (3) in HBS-EP buffer overnight at room temperature to bPF4 was determined by injection of 15 μL of the respective peptide/RANTES mixture and observation of the binding for 180 seconds. The coupling was determined and the measurements were performed in a Biacore 2000 apparatus (Biacore AB) at a flow rate of 5 μL/min. Sensor grams of the RANTES binding were corrected using the BIAevaluation 3.0 software (Biacore AB) to correct for nonspecific background signals and equilibrium resonance units (RU) were determined for each injection.
In another experiment under the same conditions as those described for example 1, the binding of RANTES (0.5 μM) or RANTES (0.5 μM) that had been preincubated with 0 μM, 10 μM, 50 μM and 100 μM of the polypeptide of the sequence SEQ ID NO: 3 according to formula (3), SEQ ID NO: 2 according to formula (2) or a control peptide of the sequence SEQ ID NO: 14 according to formula (14) as given below: […]

[3] = test system: atherosclerotic lesions in ApoE mice; assay: Mouse model of atherosclerosis (ApoE mice on high-fat diet); type: in vivo; settings: 50 μg intraperitoneal three times a week for 12 weeks
Procedure: The model for artherosclerosis [sic; atherosclerosis] was 9- to 12-week-old female ApoE litter-mate mice (The Jackson Lab, Bar Harbor, Me., USA). The mice were fed a high-fat diet (21% fat, Altromin® C1061) for 12 weeks. During this period of time, two groups of mice received intraperitoneal injections of 50 μg of the polypeptide of the sequence SEQ ID NO: 15 according to formula (15), administered three times a week, as indicated below:
(n=7 mice) in saline solution. An untreated group of mice (n=12) was used as additional controls.
The mice were sacrificed for histological examination. […] Blood samples were taken at the beginning and end of the experimental nutrition period. The white blood cell count was determined by hemocytometry and the sera were collected, the cholesterol using the Infinity cholesterol kits (Thermo Electron, Melbourne, Australia).
The extent of the atherosclerosis was determined at the aortic route and on thoracoabdominal aorta by staining lipid deposits using Oil Red O staining (N. R. Veillard, B. Kwak, G. Pelli, F. Mulhaupt, R. W. James, A. E. Proudfoot, F. Mach, Antagonism of RANTES receptors reduces atherosclerotic plaque formation in mice. Circ. Res. 2004; 94:253-61) and quantified by means of computerized image analysis (Diskus software, Hilgers, Aachen). Areas of atherosclerotic lesions were determined in 5 μm transverse sections through the heart and aortic root. The determination was performed for each aortic root on the basis of lipid stained areas of six sections a distance of 50 μm apart. The areas of atherosclerotic lesions were divided by the total surface area of the valve of each section. The thoracoabdominal aorta was opened along the ventral midline and the areas of the lesions were stained in an en-face preparation using Oil Red-O staining. The proportional amount of lipid deposit was calculated by dividing the stained area by the total thoracoabdominal surface area.

Sequence: CKEYFYTSGKCSNPAVVFVTRC [SEQ ID NO: 2]
inhibition of potentiation of monocyte arrest due to heterophilic interaction of RANTES and PF4 (in words) [1]: weaker

reduction of binding of RANTES to immobilized PF4 ([2]; RANTES 0.5 μM preincubated overnight with peptide at 100 μM, Example 1): up to 35%
inhibition of the interaction of RANTES and PF4 (in words) ([2]; RANTES 0.5 μM preincubated with 0, 10 and 100 μM peptide, Example 1): concentration-dependent inhibition
Sequence: CKEYFYTSGKSSNPGIVFITRC [SEQ ID NO: 3]
inhibition of potentiation of monocyte arrest due to heterophilic interaction of RANTES and PF4 [1]: up to 80%
inhibition of the interaction of RANTES and PF4 (comparison in words) ([2]; RANTES 0.5 μM preincubated with 10 μM, 50 μM and 100 μM peptide, Example 2): definitely more effective than the polypeptide of the sequence SEQ ID NO: 2

Sequence: CKEYFYTSSKSSNLAVVFVTRC [SEQ ID NO: 15]
area of the aortic root showing plaque in relation to the total valve surface area [3]: significantly reduced
macrophage content in the lesions [3]: significantly reduced
development of atherosclerotic lesions in comparison with mice that received the control peptide ([3]; Oil Red O staining): significant reduction

Sequence: KEYFYTSGK [SEQ ID NO: 14, control peptide, reference compound]
inhibition of potentiation of monocyte arrest due to heterophilic interaction of RANTES and PF4 (in words) [1]: no significant inhibition
inhibition of the interaction of RANTES and PF4 (in words) ([2]; RANTES 0.5 μM preincubated with 100 μM peptide, Example 2): did not exhibit any detectable inhibition
